One test has as its target T1, CDK2/CyclinA (Homo sapiens, UniProt P24941).
T1 construct: GST; purchased Proqinase
The experiment in a line: LanthaScreen Eu Kinase Binding Assay, CDK2. The settings on record: tracer 236, read-out: CDK2 (activity range), Kd. Here is the method:
This protocol describes how the LanthaScreen Eu Kinase Binding Assay was performed to determine dissociation constants (Kd) of compounds of general formula (I) and CDK/Cyclin complexes. The principle behind this assay is based upon the binding and displacement of an Alexa Fluor 647-labeled tracer, which binds to the active site of kinases. Binding of the tracer to the kinase is detected using a Eu-labeled antibody. Simultaneous binding of both the tracer and antibody to the kinase gives rise to a FRET-signal. Binding of an inhibitor to the kinase competes for binding with the tracer, resulting in a loss of FRET.
The compounds of general formula (I) summarized in Table 1 were diluted from a 10 mM DMSO stock solution 1:10 in a total volume of 15 μL DMSO. This compound predilution was then serial diluted 1:3 over 8 steps in DMSO and briefly spun down. Each compound solution was now diluted 1:33.33 in kinase buffer (HEPES: 20 mM, pH: 8.0; MgCl2: 10 mM; DTT: 1 mM; Brij-35: 0,01%), mixed thoroughly and spun down. For every sample, 5 μL of the diluted compound were mixed with 5 μL tracer working solution (e.g. 60 nM tracer 236 in kinase buffer for CDK2/Cyclin A) and 5 μL CDK/Cyclin/Anti-GST-AB-working solution (e.g. 15 nM CDK2/Cyclin A, 1:250 dilution of Anti-GST-AB in kinase buffer) in a well of a small volume 384 well plate (Corning Incorporated, Corning, N.Y., USA; order no. 3673). The tracer concentration was adjusted to its dissociation constant (Kd) for the CDK/Cyclin, which was 30 nM for CDK2/Cyclin A, CDK7/Cyclin H and CDK9/Cyclin T1, 20 nM for CDK8/Cyclin C, and 35 nM for CDK9/Cyclin K. For negative controls, in each well 5 μL of DMSO working solution (3% DMSO diluted in kinase buffer) was mixed with 5 μL Anti-GST-AB working solution (e.g. 1:250 dilution of Anti-GST-AB in kinase buffer for CDK2/Cyclin A) and 5 μL Tracer working solution (e.g. 60 nM Tracer 236 in kinase buffer for CDK2/Cyclin A). For positive controls, in each well 5 μL of DMSO working solution (3% DMSO diluted in kinase buffer) was mixed with 5 μL CDK/Cyclin/Anti-GST-AB-working solution: (e.g. 15 nM CDK2/Cyclin A, 1:250 dilution of Anti-GST-AB in kinase buffer) and 5 μL Tracer working solution (e.g. 60 nM Tracer 236 in kinase buffer for CDK2/Cyclin A). Positive and negative controls were calculated from at least 8 different sample wells. The 384 well plates were mixed in a Teleshaker plate mixer (Beckman Coulter, Brea, Calif., USA) at 2000 rpm for 40 sec, and incubated for 1 h at room temperature before reading. The FRET signal was measured at 340 nm excitation, 665 nm and 615 nm emission (for the kinase tracer and LanthaScreen Eu-AB, respectively) with an Envision spectrophotometer (Perkin Elmer, Waltham, Mass., USA) with […]. Kd values were determined from the sigmoidal dose response curves with the software Quattro Workflow (Quattro GmbH, Munich, Germany).
On the technique in general: Time-resolved FRET reads energy transfer from a long-lived donor to a nearby acceptor.

In the next test the target is T2, CDK9/Cyclin K (Homo sapiens, UniProt P50750).
T2 construct: His; purchased Invitrogen
T2 sequence (P50750 whole entry): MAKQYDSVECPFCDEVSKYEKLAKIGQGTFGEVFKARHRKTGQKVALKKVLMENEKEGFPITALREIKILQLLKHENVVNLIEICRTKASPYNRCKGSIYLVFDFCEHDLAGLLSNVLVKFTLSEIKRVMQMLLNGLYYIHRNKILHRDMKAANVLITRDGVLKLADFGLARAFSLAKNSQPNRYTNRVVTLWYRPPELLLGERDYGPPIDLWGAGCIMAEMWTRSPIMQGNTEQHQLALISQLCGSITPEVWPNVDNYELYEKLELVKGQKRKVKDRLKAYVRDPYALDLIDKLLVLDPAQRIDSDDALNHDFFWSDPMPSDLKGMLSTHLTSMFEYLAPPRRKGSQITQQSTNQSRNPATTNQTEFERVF
T2 sequence (O75909 1-357 isoform O75909-1 partner): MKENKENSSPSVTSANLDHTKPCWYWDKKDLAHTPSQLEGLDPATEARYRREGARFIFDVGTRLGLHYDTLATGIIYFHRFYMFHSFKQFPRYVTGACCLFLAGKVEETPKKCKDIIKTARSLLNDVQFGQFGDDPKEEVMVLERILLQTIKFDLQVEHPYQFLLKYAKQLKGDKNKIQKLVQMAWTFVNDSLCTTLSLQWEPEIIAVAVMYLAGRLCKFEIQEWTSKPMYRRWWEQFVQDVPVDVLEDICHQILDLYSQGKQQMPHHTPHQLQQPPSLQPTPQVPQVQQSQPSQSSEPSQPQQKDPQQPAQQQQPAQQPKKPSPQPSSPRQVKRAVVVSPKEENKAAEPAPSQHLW
Description: LanthaScreen Eu Kinase Binding Assay, CDK9/Cyclin K. The settings on record: tracer 236, read-out: CDK9/Cyclin K (activity range), Kd. The essentials: (§1)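 TR-FRET displacement of an Alexa Fluor 647 active-site tracer, detected with a Eu anti-GST antibody, over an 8-point 1:3 compound series. Tracer was set at its Kd (30 nM for CDK2/Cyclin A, CDK7 and CDK9/Cyclin T1; 35 nM for CDK9/Cyclin K). Read after 1 h at room temperature; Kd was fitted from sigmoidal curves.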

For another test, the system named is Hela cells. The experiment in a line: Cell Viability Assay, Hela cells. The class given is cell-based. Particulars: Homo sapiens, 72 h, Cell Titer Glo, read-out: Cell Viability - Hela cells (activity range), IC50. Here is the method: (§2) 3.4 Cell Viability Assays
(§3) Hela- or MDAMB468-Cells were maintained in RPMI 1640 or McCoy's 5A cell culture medium+glutamine (PAN Biotech GmbH, Aidenbach, Germany; order no. PO4-22100; PO4-05500) supplemented with 10% fetal calf serum “Gold” (PAA Laboratories GmbH, Pasching, Austria; order no. A15-151) and grown at 37° C., 5% CO2. For the cell viability assay, cells were seeded with a density of 400 (Hela cells, DSMZ Braunschweig order no. ACC57) or 800 (MDAMB468 cells, ATCC order no. HTB-132) per well in 25 μL in 384-well plates (Greiner Bio-One, Frickenhausen, Germany; order no. 781080). After overnight incubation at 37° C./5% CO2, 25 nL or 75 nL compound were added to each sample well by using BIOMEK FXP Laboratory Automation Workstation (Beckman Coulter, USA). Wells with cells and 0.1% or 0,3% DMSO in culture medium were used as positive controls, wells with cells and 10 μM staurosporine in culture medium were used as negative controls. The cells were incubated with the compounds for 72 h at 37° C./5% CO2. For measurement of cell viability 25 μL Cell Titer Glo reagent (Promega, Madison, USA; order no. G7573), 1:2 diluted with cell culture medium, was added to each well. The 384we11-plates were placed for 2 min on a orbital microplate shaker and incubated for further 10 min at room temperature to stabilize the luminescence signal.
(§4) Luminescence was measured by Envision Plate Reader (Perkin Elmer, USA). IC50 values were calculated with the software Excel Fit (IDBS, Guildford, UK) from 3-fold dilution series comprising at least 8 concentrations in duplicates.
A general note: ATP-based viability assays read luminescence as a measure of living cells.

The subject of a further test is MDAMB468 cells. Description: Cell Viability Assay, MDAMB468 cells. Format: cell-based. The settings on record: Homo sapiens, MDA-MB-468; 72 h, Cell Titer Glo; read-out: Cell Viability - MDAMB468 cells (activity range), IC50. Here is the method: as §2, §3, §4
Another test concerns the target T3, CDK7/CyclinH/MAT1 (Homo sapiens, UniProt P50613).
T3 construct: His; purchased Carna Biosciences
Description: LanthaScreen Eu Kinase Binding Assay, CDK7. The settings on record: tracer 236, read-out: CDK7 (activity range), Kd. The essentials:
as §1

The target of a further test is T4, CDK9/Cyclin T1 (Homo sapiens, UniProt P50750).
T4 construct: His; purchased Invitrogen
T4 sequence (P50750 whole entry): as the sequence (P50750 whole entry) above
T4 sequence (O60563 whole entry partner): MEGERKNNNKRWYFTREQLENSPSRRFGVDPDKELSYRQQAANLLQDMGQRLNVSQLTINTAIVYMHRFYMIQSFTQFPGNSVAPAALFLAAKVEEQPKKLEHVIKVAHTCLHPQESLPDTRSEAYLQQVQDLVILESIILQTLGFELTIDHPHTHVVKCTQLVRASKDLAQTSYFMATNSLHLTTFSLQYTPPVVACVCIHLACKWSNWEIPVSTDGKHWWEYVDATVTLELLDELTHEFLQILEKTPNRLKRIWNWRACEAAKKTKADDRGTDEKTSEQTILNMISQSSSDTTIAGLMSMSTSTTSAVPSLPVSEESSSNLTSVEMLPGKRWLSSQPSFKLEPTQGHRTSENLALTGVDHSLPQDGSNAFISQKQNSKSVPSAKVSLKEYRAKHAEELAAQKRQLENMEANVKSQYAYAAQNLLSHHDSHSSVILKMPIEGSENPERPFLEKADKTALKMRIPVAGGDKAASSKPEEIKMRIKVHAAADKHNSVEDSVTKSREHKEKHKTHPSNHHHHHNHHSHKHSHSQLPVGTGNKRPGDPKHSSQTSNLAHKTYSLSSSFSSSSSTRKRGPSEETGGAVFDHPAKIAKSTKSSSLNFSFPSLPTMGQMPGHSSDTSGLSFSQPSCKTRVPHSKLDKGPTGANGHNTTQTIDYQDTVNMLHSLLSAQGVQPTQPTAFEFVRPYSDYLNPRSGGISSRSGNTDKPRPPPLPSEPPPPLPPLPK
Description: LanthaScreen Eu Kinase Binding Assay, CDK9/Cyclin T1. The settings on record: tracer 236, read-out: CDK9/Cyclin T1 (activity range), Kd. The essentials: as §1

One may read the IC50 as the concentration that inhibits the measured activity by half.

Structures are written as SMILES.

T3 sequence (P50613 whole entry): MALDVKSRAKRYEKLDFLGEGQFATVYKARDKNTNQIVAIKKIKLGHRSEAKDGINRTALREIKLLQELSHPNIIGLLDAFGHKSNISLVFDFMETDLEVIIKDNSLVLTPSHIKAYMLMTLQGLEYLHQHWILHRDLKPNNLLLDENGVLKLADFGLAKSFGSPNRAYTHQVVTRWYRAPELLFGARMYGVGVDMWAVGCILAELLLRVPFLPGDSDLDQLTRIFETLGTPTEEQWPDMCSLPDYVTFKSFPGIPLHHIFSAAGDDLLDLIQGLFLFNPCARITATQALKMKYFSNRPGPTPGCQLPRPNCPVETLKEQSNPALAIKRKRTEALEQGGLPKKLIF
T3 sequence (P51946 whole entry partner): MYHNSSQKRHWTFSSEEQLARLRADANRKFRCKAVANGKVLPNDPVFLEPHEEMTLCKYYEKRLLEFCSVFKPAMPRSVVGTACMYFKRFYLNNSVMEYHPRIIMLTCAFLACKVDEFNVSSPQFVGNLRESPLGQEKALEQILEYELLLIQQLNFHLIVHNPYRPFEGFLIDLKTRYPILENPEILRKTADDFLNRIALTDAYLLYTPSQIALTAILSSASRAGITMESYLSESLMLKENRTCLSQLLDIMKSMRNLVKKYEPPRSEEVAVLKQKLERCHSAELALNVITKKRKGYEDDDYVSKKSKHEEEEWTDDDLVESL
T3 sequence (P51948 whole entry partner): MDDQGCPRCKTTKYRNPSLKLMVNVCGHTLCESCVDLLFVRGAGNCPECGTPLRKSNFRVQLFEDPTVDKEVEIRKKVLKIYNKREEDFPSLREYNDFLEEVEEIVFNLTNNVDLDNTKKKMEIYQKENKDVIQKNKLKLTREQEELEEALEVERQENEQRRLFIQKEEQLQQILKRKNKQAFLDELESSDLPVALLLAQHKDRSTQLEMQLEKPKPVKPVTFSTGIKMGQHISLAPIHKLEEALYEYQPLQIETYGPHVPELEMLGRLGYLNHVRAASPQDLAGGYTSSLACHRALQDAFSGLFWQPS

With `NS(=O)(=O)Cc1cccc(Nc2ncnc(N3Cc4ccncc4C3)n2)c1` [Compound B49, 3-[(4-(1H-Pyrrolo[3,4-c]pyridin-2(3H)-yl)-1,3,5-triazin-2-yl)amino]-benzenemethanesulfonamide], the Kd is 100 to 1000 nM on CDK2/CyclinA, under 100 nM at CDK9/Cyclin K, over 10000 nM on CDK7/CyclinH/MAT1 and under 100 nM on CDK9/Cyclin T1. For the same molecule, the IC50 in the test on Hela cells and in the test with MDAMB468 cells was over 10000 nM throughout.

Take `NS(=O)(=O)Cc1cccc(Nc2ncnc(N3CCC[C@@H]3c3ccccc3)n2)c1` [Compound B34, (R)-3-[(4-(2-Phenylpyrrolidin-1-yl)-1,3,5-triazin-2-yl)amino]-benzenemethanesulfonamide]: the Kd on CDK2/CyclinA was 1000 to 10000 nM; on CDK9/Cyclin K it was under 100 nM; at CDK7/CyclinH/MAT1 it was over 10000 nM; on CDK9/Cyclin T1, under 100 nM. The IC50 in the test with Hela cells was over 10000 nM; in the test with MDAMB468 cells, 1000 to 10000 nM.

Source of the values: US9226929B2, “Pharmaceutically active disubstituted triazine derivatives” (Bayer Intellectual Property GMBH, priority 2011, dated 2016).
